Values joined by “and” are separate entries in the source; they are usually repeats but may differ in a detail not shown here. Identical values can stand only once. Toxic doses and inconclusive results are not listed.
Test system: P388 leukemia ip, CD2F1 mice, survival T/C
Experiment: NCI In Vivo Anticancer Drug Screen. Data for tumor model P388 Leukemia (intraperitoneal) in CD2F1 (CDF1) mice
Conditions: endpoint: median survival time, higher = longer survival
Method in brief: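 Mice carrying the transplanted tumor received test compound or vehicle. Survival was recorded in each group, and the value is the treated-group measurement divided by that of the vehicle-treated control group.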

[1] = dose: 25.0 mg/kg/injection, schedule: Q01DX009 (ip), vehicle: water
[2] = dose: 50.0 mg/kg/injection, schedule: Q01DX009 (ip), vehicle: water
[3] = dose: 100.0 mg/kg/injection, schedule: Q01DX009 (ip), vehicle: saline
[4] = dose: 100.0 mg/kg/injection, schedule: Q01DX009 (ip), vehicle: water
[5] = dose: 200.0 mg/kg/injection, schedule: Q01DX009 (ip), vehicle: water
[6] = dose: 60.0 mg/kg/injection, schedule: Q01DX005 (ip), vehicle: Klucel (hydroxypropylcellulose) (HPC)
[7] = dose: 120.0 mg/kg/injection, schedule: Q01DX005 (ip), vehicle: Klucel (hydroxypropylcellulose) (HPC)
[8] = dose: 240.0 mg/kg/injection, schedule: Q01DX005 (ip), vehicle: Klucel (hydroxypropylcellulose) (HPC)
[9] = dose: 50.0 mg/kg/injection, schedule: Q01DX005 (ip), vehicle: saline with Tween-80
[10] = dose: 100.0 mg/kg/injection, schedule: Q01DX005 (ip), vehicle: saline with Tween-80
[11] = dose: 200.0 mg/kg/injection, schedule: Q01DX005 (ip), vehicle: saline with Tween-80
[12] = dose: 60.0 mg/kg/injection, schedule: Q01DX005 (ip), vehicle: saline with Tween-80
[13] = dose: 120.0 mg/kg/injection, schedule: Q01DX005 (ip), vehicle: saline with Tween-80
[14] = dose: 240.0 mg/kg/injection, schedule: Q01DX005 (ip), vehicle: saline with Tween-80
[15] = dose: 25.0 mg/kg/injection, schedule: Q01DX009 (ip), vehicle: saline with Tween-80
[16] = dose: 50.0 mg/kg/injection, schedule: Q01DX009 (ip), vehicle: saline with Tween-80
[17] = dose: 100.0 mg/kg/injection, schedule: Q01DX009 (ip), vehicle: saline with Tween-80
[18] = dose: 200.0 mg/kg/injection, schedule: Q01DX009 (ip), vehicle: saline with Tween-80
[19] = dose: 400.0 mg/kg/injection, schedule: Q01DX009 (ip), vehicle: saline with Tween-80

`N#C[C@H](OC1OC(COC2OC(CO)C(O)C(O)C2O)C(O)C(O)C1O)c1ccccc1` (stereo partly specified) was tested, and the T/C (dose: 6.25 mg/kg/injection, schedule: Q01DX009 (oral), vehicle: water) was 91 % of control, the T/C (dose: 12.5 mg/kg/injection, schedule: Q01DX009 (oral), vehicle: saline) was 98 % of control and the T/C (dose: 12.5 mg/kg/injection, schedule: Q01DX009 (oral), vehicle: water) was 95 % of control. For the same molecule, the T/C (dose: 25.0 mg/kg/injection, schedule: Q01DX009 (ip), vehicle: saline) was 100 % of control, the T/C [1] was 105 % of control and the T/C (dose: 25.0 mg/kg/injection, schedule: Q01DX009 (oral), vehicle: saline) was 115 % of control. For the same molecule, the T/C (dose: 25.0 mg/kg/injection, schedule: Q01DX009 (oral), vehicle: water) was 93 % of control, the T/C (dose: 50.0 mg/kg/injection, schedule: Q01DX009 (ip), vehicle: saline) was 100 % of control and 112 % of control and the T/C [2] was 97 % of control. The T/C (dose: 50.0 mg/kg/injection, schedule: Q01DX009 (oral), vehicle: saline) was 118 % of control, the T/C (dose: 50.0 mg/kg/injection, schedule: Q01DX009 (oral), vehicle: suspension in saline) was 104 % of control and the T/C (dose: 50.0 mg/kg/injection, schedule: Q01DX009 (oral), vehicle: water) was 96 % of control. The T/C [3] was 104 % of control and 107 % of control, the T/C [4] was 100 % of control and the T/C (dose: 100.0 mg/kg/injection, schedule: Q01DX009 (oral), vehicle: saline) was 101 % of control. For the same molecule, the T/C (dose: 100.0 mg/kg/injection, schedule: Q01DX009 (oral), vehicle: suspension in saline) was 100 % of control and 107 % of control, the T/C (dose: 100.0 mg/kg/injection, schedule: Q01DX009 (oral), vehicle: water) was 105 % of control and 93 % of control and the T/C (dose: 200.0 mg/kg/injection, schedule: Q01DX009 (ip), vehicle: saline) was 100 % of control and 109 % of control. The T/C [5] was 101 % of control, the T/C (dose: 200.0 mg/kg/injection, schedule: Q01DX009 (oral), vehicle: saline) was 100 % of control and the T/C (dose: 200.0 mg/kg/injection, schedule: Q01DX009 (oral), vehicle: water) was 102 % of control and 104 % of control. For the same molecule, the T/C (dose: 400.0 mg/kg/injection, schedule: Q01DX009 (ip), vehicle: saline) was 102 % of control and 109 % of control, the T/C (dose: 400.0 mg/kg/injection, schedule: Q01DX009 (ip), vehicle: water) was 100 % of control and the T/C (dose: 400.0 mg/kg/injection, schedule: Q01DX009 (oral), vehicle: suspension in saline) was 100 % of control. The T/C (dose: 800.0 mg/kg/injection, schedule: Q01DX009 (ip), vehicle: saline) was 102 % of control and 108 % of control and the T/C (dose: 800.0 mg/kg/injection, schedule: Q01DX009 (ip), vehicle: water) was 102 % of control.
`CC(=O)Nc1ccc2c(=O)n(O)c(=O)[nH]c2c1` was tested, and the T/C (dose: 50.0 mg/kg/injection, schedule: Q01DX005 (ip), vehicle: Klucel (hydroxypropylcellulose) (HPC)) was 102 % of control, the T/C (dose: 100.0 mg/kg/injection, schedule: Q01DX005 (ip), vehicle: Klucel (hydroxypropylcellulose) (HPC)) was 103 % of control and the T/C (dose: 200.0 mg/kg/injection, schedule: Q01DX005 (ip), vehicle: Klucel (hydroxypropylcellulose) (HPC)) was 106 % of control.
For `CC1CCCCC1=C(C#N)C#N` (stereo unspecified), the T/C (dose: 12.5 mg/kg/injection, schedule: Q01DX009 (ip), vehicle: other) was 95 % of control and the T/C (dose: 25.0 mg/kg/injection, schedule: Q01DX009 (ip), vehicle: other) was 100 % of control.
`Oc1c2ccccc2cc2cnc3ccccc3c12` was tested, and the T/C [6] was 102 % of control, the T/C [7] was 109 % of control and the T/C [8] was 111 % of control.
`COc1ccc(C2C(S(=O)(=O)c3ccccc3)CON2c2ccccc2)cc1` (stereo unspecified) was tested, and the T/C [9] was 97 % of control, the T/C [10] was 96 % of control and the T/C [11] was 89 % of control.
For `Cc1ccccc1C1OC(N)=C(O)C1=O` (stereo unspecified), the T/C [6] was 93 % of control, the T/C [7] was 93 % of control and the T/C [8] was 90 % of control.
With `CCCCCCCCCCCCCCCc1c(NC(C)(CC)[P+](=O)O)c(=O)n(C)n1C` (stereo unspecified) the T/C (dose: 6.25 mg/kg/injection, schedule: Q01DX009 (ip), vehicle: saline) was 112 % of control, the T/C (dose: 12.5 mg/kg/injection, schedule: Q01DX009 (ip), vehicle: saline) was 100 % of control and the T/C [3] was 101 % of control.
In the case of `CCCCc1[nH]nc(-c2n[nH]c(CCCC)c2C)c1C`, the T/C [12] was 95 % of control, the T/C [13] was 100 % of control and the T/C [14] was 108 % of control.
`COc1cccc(C(=O)c2ccncc2C)c1OC` was tested, and the T/C (dose: 12.5 mg/kg/injection, schedule: Q01DX009 (ip), vehicle: water) was 103 % of control, the T/C [1] was 102 % of control and the T/C [2] was 100 % of control. The T/C [4] was 97 % of control and the T/C [5] was 102 % of control.
In the case of `COC(=O)C(C)n1c(C)csc1=S` (stereo unspecified), the T/C [9] was 103 % of control and the T/C [10] was 98 % of control.
With `CCSc1nsc(NC(C)=O)n1` the T/C (dose: 100.0 mg/kg/injection, schedule: Q01DX001 (ip), vehicle: Klucel (hydroxypropylcellulose) (HPC)) was 104 % of control, the T/C (dose: 200.0 mg/kg/injection, schedule: Q01DX001 (ip), vehicle: Klucel (hydroxypropylcellulose) (HPC)) was 96 % of control and the T/C (dose: 400.0 mg/kg/injection, schedule: Q01DX001 (ip), vehicle: Klucel (hydroxypropylcellulose) (HPC)) was 102 % of control.
In the case of `COc1ccc(NC(=O)Oc2ccc3c(C)cc(=O)oc3c2)c(OC)c1` (tested in a mixture with another compound), the T/C [12] was 106 % of control and 117 % of control and the T/C [13] was 120 % of control and 121 % of control.
With `O=C1C(NCC(O)CO)=C(N2CC2)C(=O)C(NCC(O)CO)=C1N1CC1` (stereo unspecified) the T/C (dose: 1.5 mg/kg/injection, schedule: Q01DX009 (ip), vehicle: saline) was 198 % of control, the T/C (dose: 3.0 mg/kg/injection, schedule: Q01DX009 (ip), vehicle: saline) was 227 % of control and the T/C (dose: 4.0 mg/kg/injection, schedule: Q01DX009 (ip), vehicle: saline) was 270 % of control.
`CC(C)(C)OC(=O)NC1CN(OCc2ccccc2)C1=O` (stereo unspecified) was tested, and the T/C [9] was 100 % of control, the T/C [10] was 94 % of control and the T/C [11] was 89 % of control.
In the case of `N#CC(C(=O)CCC(=O)NCCc1ccccc1)c1nc2ccccc2s1` (stereo unspecified), the T/C [12] was 103 % of control, the T/C [13] was 100 % of control and the T/C [14] was 100 % of control.
With `c1cc(Nc2ccc(Nc3ccc(CN4CCCCC4)cc3)cc2)ccc1CN1CCCCC1` the T/C (dose: 12.5 mg/kg/injection, schedule: Q01DX009 (ip), vehicle: saline + Tween-80 + alcohol) was 105 % of control, the T/C (dose: 12.5 mg/kg/injection, schedule: Q01DX009 (ip), vehicle: saline with Tween-80) was 103 % of control and the T/C (dose: 25.0 mg/kg/injection, schedule: Q01DX009 (ip), vehicle: saline + Tween-80 + alcohol) was 111 % of control and 114 % of control. For the same molecule, the T/C [15] was 107 % of control, the T/C (dose: 50.0 mg/kg/injection, schedule: Q01DX009 (ip), vehicle: saline + Tween-80 + alcohol) was 114 % of control and 115 % of control and the T/C [16] was 111 % of control. For the same molecule, the T/C (dose: 100.0 mg/kg/injection, schedule: Q01DX009 (ip), vehicle: saline + Tween-80 + alcohol) was 117 % of control and 118 % of control, the T/C [17] was 99 % of control and the T/C (dose: 200.0 mg/kg/injection, schedule: Q01DX009 (ip), vehicle: saline + Tween-80 + alcohol) was 124 % of control. For the same molecule, the T/C [18] was 106 % of control and the T/C [19] was 114 % of control.
For `Nc1nc(N)nc(N)n1`, the T/C [17] was 106 % of control, the T/C [18] was 107 % of control and the T/C [19] was 99 % of control. The T/C (dose: 800.0 mg/kg/injection, schedule: Q01DX009 (ip), vehicle: saline with Tween-80) was 96 % of control.
For `C=C1C(=O)O[C@@H]2C[C@@H](C)[C@@H]3CC[C@H](O)[C@@]3(COC(C)=O)C[C@@H]12`, the T/C (dose: 8.13 mg/kg/injection, schedule: Q01DX005 (ip), vehicle: Klucel (hydroxypropylcellulose) (HPC)) was 97 % of control, the T/C (dose: 16.25 mg/kg/injection, schedule: Q01DX005 (ip), vehicle: Klucel (hydroxypropylcellulose) (HPC)) was 99 % of control and the T/C (dose: 32.5 mg/kg/injection, schedule: Q01DX005 (ip), vehicle: Klucel (hydroxypropylcellulose) (HPC)) was 100 % of control and 98 % of control. The T/C (dose: 65.0 mg/kg/injection, schedule: Q01DX005 (ip), vehicle: Klucel (hydroxypropylcellulose) (HPC)) was 104 % of control and 109 % of control, the T/C (dose: 130.0 mg/kg/injection, schedule: Q01DX005 (ip), vehicle: Klucel (hydroxypropylcellulose) (HPC)) was 113 % of control and the T/C (dose: 260.0 mg/kg/injection, schedule: Q01DX005 (ip), vehicle: Klucel (hydroxypropylcellulose) (HPC)) was 122 % of control.
In the case of `CCCCOP(O)(=S)OCCCC.[Gd]`, the T/C [15] was 92 % of control, the T/C [16] was 87 % of control and 98 % of control and the T/C [18] was 86 % of control.
